Results reported in ChEMBL document CHEMBL1132093, “Fecal excretion pattern of bile acids in rats fed high fat diets and neomycin in induced colon tumorigenesis” (1999).

Experiments:
Type in all cases: functional
Rattus norvegicus [1] = species on record: Rattus norvegicus; assay: Effect on colon large bowel tumorigenesis in rats fed with cholesterol and cholic acid diet(Group 2 diet)
Rattus norvegicus [2] = species on record: Rattus norvegicus; assay: Effect on colon large bowel tumorigenesis in rats fed with safflower oil diet(Group 1 diet)
Rattus norvegicus [3] = species on record: Rattus norvegicus; assay: Effect on colon small bowel tumorigenesis in rats fed with cholesterol and cholic acid diet(Group 2 diet)
Rattus norvegicus [4] = species on record: Rattus norvegicus; assay: Effect on colon small bowel tumorigenesis in rats fed with safflower oil diet(Group 1 diet)
Rattus norvegicus [5] = species on record: Rattus norvegicus; assay: Average number of tumors per rat in colon large bowel tumorigenesis in rats fed with cholesterol and cholic acid diet(Group 2 diet)
Rattus norvegicus [6] = species on record: Rattus norvegicus; assay: Average number of tumors per rat in colon large bowel tumorigenesis in rats fed with safflower oil diet(Group 1 diet)
Rattus norvegicus [7] = species on record: Rattus norvegicus; assay: Average number of tumors per rat in colon small bowel tumorigenesis in rats fed with cholesterol and cholic acid diet(Group 2 diet)
Rattus norvegicus [8] = species on record: Rattus norvegicus; assay: Average number of tumors per rat in colon small bowel tumorigenesis in rats fed with safflower oil diet(Group 1 diet)

NC[C@@H]1O[C@H](O[C@H]2[C@@H](O)[C@H](O[C@@H]3[C@@H](O)[C@H](N)C[C@H](N)[C@H]3O[C@H]3O[C@H](CN)[C@@H](O)[C@H](O)[C@H]3N)O[C@@H]2CO)[C@H](N)[C@@H](O)[C@@H]1O [FRAMYCETIN]
Incidence (Rattus norvegicus [1]): 80% | Incidence (Rattus norvegicus [2]): 98% | Incidence (Rattus norvegicus [3]): 25% | Incidence (Rattus norvegicus [4]): 22% | No. of tumors (Rattus norvegicus [5]): 1.13 | No. of tumors (Rattus norvegicus [6]): 3 | No. of tumors (Rattus norvegicus [7]): 0.5 | No. of tumors (Rattus norvegicus [8]): 0.5
